According to PMC10390520, “Antibody binding of amyloid beta peptide epimers/isomers and ramifications for immunotherapies and drug development” (Scientific Reports, 2023):

Tested on: antibodies 4G8, 6E10, mOC98 and mOC23
Assay: Immunoprecipitation of Aβ 1–42 peptides with four antibodies, LC-MS/MS detection
Assay type: binding
Details: Fig. 3B data, corrected with individual MS/MS calibration curves; 11 pmol Aβ peptide, 13.2 pmol antibody in 300 µL IP lysis/wash buffer; Protein A/G plus agarose; LC-MS/MS 903–886 m/z; triplicate
Experimental: Antibody binding efficacy was assessed through an immunoprecipitation procedure, followed by reconstitution in borate buffer and analysis via liquid chromatography tandem mass spectrometry (see Methods). […] Note that these antibodies were developed using the WT (all L) Aβ peptide. Further, the MS/MS detection also was optimized using the WT (all L) Aβ peptide. […] The reduced signal intentensities could be attributed to the altered binding between the antibody and the “aberrant” forms of Aβ, differences in the MS/MS of the “aberrant” Aβ or combinations of these two factors. […]
Purified anti-β-Amyloids 17–24 Antibody (4G8) and 1–16 Antibody (6E10) were purchased from BioLegend (San Diego, CA, USA) while mOC-type antibodies recombinant anti-beta amyloid 1–42 mOC98 and mOC23 were purchased from Abcam (Cambridge, UK). Antibody-antigen binding was measured using Pierce Classic IP Kit by Thermo Fisher Scientific (Waltham, MA, USA). […] Elution buffer was evaporated and samples were reconstituted in 20 µL of 0.1 M borate buffered to pH 9.1 and analyzed by LC–MS/MS. […]
HPLC–MS grade acetonitrile was purchased from Sigma-Aldrich and ultrapure water was obtained from a Milli-Q-water system (Millipore, Bedford, MA, USA). […] WT (all L) Aβ 1–42 and aberrant Aβ 1–42 immunoprecipitated standards were quantitated using the MS/MS transition 903–886 m/z. […]

Which “antibody binding affinity (immunoprecipitation extraction) compared to WT (all L) Aβ” value does the source give for “WT (all L) Aβ: unmodified wild-type all-L amyloid beta 1–42 peptide, purchased from Genscript” here?
Its value is “same efficacy”.
